Test results taken from the SangsterLogP compilation.

Assays:
[1] = method code SF-AS, from Krisztina, T.; Perjesi, P.; Vámos, J. (2001). Determination of logP for biologically active chalcones and cyclic chalcone analogs by RPTLC. Journal of Planar Chromatography - Modern TLC. 14, 42-46.; conditions: pH 7.4

logP	logD [1]	Structure (SMILES)
4.15		O=C1C(=Cc2ccc([N+](=O)[O-])cc2)CCCc2ccccc21
4.48		O=C1C(=Cc2ccccc2)CCCc2ccccc21
4.72		COc1ccc(C=C2CCCc3ccccc3C2=O)cc1
3.8		COc1cccc(C=CC(=O)c2ccccc2)c1
5.04		O=C1C(=Cc2ccccc2Br)CCCc2ccccc21
5.26		CN(C)c1ccc(C=C2CCCc3ccccc3C2=O)cc1
3.97		COc1cccc(C=C2Cc3ccccc3C2=O)c1
5.1		Cc1ccc(C=C2CCCc3ccccc3C2=O)cc1
3.91		COc1ccc(C=C2Cc3ccccc3C2=O)cc1
4.23		CN(C)c1ccc(/C=C/C(=O)c2ccccc2)cc1
4.32		O=C1C(=Cc2cccc([N+](=O)[O-])c2)CCCc2ccccc21
5.04		O=C1C(=Cc2ccccc2Cl)CCCc2ccccc21
3.67		COc1ccc(/C=C/C(=O)c2ccccc2)cc1
	3.66	O=C1C(=Cc2ccccc2)Cc2ccccc21
4.69		COc1ccccc1C=C1CCCc2ccccc2C1=O
4.5		CN(C)c1ccc(C=C2Cc3ccccc3C2=O)cc1

Continued, molecule first:

Structure (SMILES)	logP	logD [1]
O=C1C(=Cc2ccc(Cl)cc2)CCCc2ccccc21	5.1	
Cc1ccccc1C=C1CCCc2ccccc2C1=O	4.92	
Cc1cccc(C=C2CCCc3ccccc3C2=O)c1	4.98	
COc1ccc(C=C2CCc3ccccc3C2=O)cc1	4.32	
O=C1C(=Cc2cccc(F)c2)CCCc2ccccc21	4.6	
O=C1C(=Cc2ccc(F)cc2)CCCc2ccccc21	4.45	
COc1ccccc1C=C1CCc2ccccc2C1=O	4.43	
O=C(C=Cc1ccccc1)c1ccccc1		3.62
COc1ccccc1C=C1Cc2ccccc2C1=O	4.01	
O=C1C(=Cc2cccc(Br)c2)CCCc2ccccc21	5.35	
O=C1/C(=C\c2ccccc2)CCc2ccccc21	4.14	
N#Cc1ccc(/C=C/C(=O)c2ccccc2)cc1	2.93	
O=C1/C(=C/c2ccccc2[N+](=O)[O-])CCCc2ccccc21	4.07	
COc1ccccc1C=CC(=O)c1ccccc1	3.99	
COc1cccc(/C=C2\CCc3ccccc3C2=O)c1	4.42	
CN(C)c1ccc(C=C2CCc3ccccc3C2=O)cc1	4.91	
O=C1C(=Cc2ccc(Br)cc2)CCCc2ccccc21	5.22	
